Test results taken from the Deep4Chem optical property database.

Assay: solvent given as SMILES

## O=C1C=C(Nc2ccc(F)cc2F)C(=O)c2ccccc21
In CCCCCC
  absorption maximum: 439 nm
In CO
  absorption maximum: 443 nm

## c1ccc(-c2nc3cc4c(cc3n2-c2ccccc2)nc(-c2ccccc2)n4-c2ccccc2)cc1
In CC#N
  absorption maximum: 330 nm

## Cc1ccc(-c2ccc(/C=C/c3ccc([N+](=O)[O-])cc3)cn2)nc1
In CC#N
  absorption maximum: 349 nm

## CCCCCCn1c2c(c3cc(-c4ccc5ccc6cccc7ccc4c5c67)ccc31)-c1c(c3cc(-c4ccc5ccc6cccc7ccc4c5c67)ccc3n1CCCCCC)-c1c(c3cc(-c4ccc5ccc6cccc7ccc4c5c67)ccc3n1CCCCCC)-c1c-2c2cc(-c3ccc4ccc5cccc6ccc3c4c56)ccc2n1CCCCCC
In ClCCl
  absorption maximum: 340 nm

## CCCCCCCCCC1(CCCCCCCCC)c2cc(C#Cc3ccc(/C=C/c4ccc(N(CCCCCCCC)CCCCCCCC)cc4)cc3)ccc2-c2ccc(C#Cc3ccc(/C=C/c4ccc(N(CCCCCCCC)CCCCCCCC)cc4)cc3)cc21
In Cc1ccccc1
  absorption maximum: 411 nm

## COc1ccc(C(=Cc2ccc(/C=C(\C#N)c3ccccc3)cc2)c2ccc(OC)cc2)cc1
In C1CCOC1
  absorption maximum: 388 nm

## OB(O)c1ccc(-c2ccc(N(c3ccccc3)c3ccccc3)cc2)cc1
In C1CCCCC1
  absorption maximum: 332.8 nm
In C1CCOC1
  absorption maximum: 331 nm
In CCO
  absorption maximum: 329.6 nm
In CCOCC
  absorption maximum: 330 nm
In CO
  absorption maximum: 326 nm

## CC1=C(C#Cc2ccccc2)C(C)=[N+]2C1=C(c1ccccc1)c1c(C)c(C#Cc3ccccc3)c(C)n1[B-]2(F)F
In C1CCOC1
  absorption maximum: 573 nm
In ClCCl
  absorption maximum: 561 nm

## C/C(=C\c1ccc(Cl)cc1)c1nc2ccccc2o1
In C1CCCCC1
  absorption maximum: 320 nm
In CO
  absorption maximum: 320 nm

## Fc1ccc(C2=NC(c3ccccc3)C(N(c3ccccc3)c3ccccc3)S2)cc1 (centres undefined)
In ClC(Cl)Cl
  absorption maximum: 363 nm

## COc1ccc(-c2ccc(-c3ccc(C#N)cc3)cc2)cc1
In C1CCCCC1
  absorption maximum: 305 nm

## COC(=O)c1nc2c(N(C)C)nc(N)nc2n1Cc1ccccc1
In C1COCCO1
  absorption maximum: 334 nm
In CC#N
  absorption maximum: 332 nm
In CO
  absorption maximum: 331 nm
In ClCCl
  absorption maximum: 330 nm

## CCC1(CC)c2cc(B(c3c(C)cc(C)cc3C)c3c(C)cc(C)cc3C)ccc2-c2c1c1c(c3c2C(CC)(CC)c2cc(N(c4ccccc4)c4ccccc4)ccc2-3)C(CC)(CC)c2cc(B(c3c(C)cc(C)cc3C)c3c(C)cc(C)cc3C)ccc2-1
In C1CCOC1
  absorption maximum: 362 nm
In CC#N
  absorption maximum: 359 nm
In CC(C)=O
  absorption maximum: 360 nm
In CCCCCC
  absorption maximum: 361 nm
In CCCO
  absorption maximum: 360 nm
In CCO
  absorption maximum: 360 nm
In Cc1ccccc1
  absorption maximum: 363 nm
In ClC(Cl)Cl
  absorption maximum: 364 nm

## N#Cc1nc(N(Cc2ccccc2)Cc2ccccc2)c(C#N)nc1N(Cc1ccccc1)Cc1ccccc1
In ClC(Cl)Cl
  absorption maximum: 493 nm

## COC(=O)COc1ccc(/C=C/C2=[N+]3C(=C(c4ccc(N(C)C)cc4)c4c(C)cc(C)n4[B-]3(F)F)C(C)=C2)cc1
In CO
  absorption maximum: 566 nm

## COc1ccc2c(c1)-c1cc3c(cc1[Si]2(c1ccccc1)c1ccccc1)-c1ccccc1[Si]3(c1ccccc1)c1ccccc1
In ClCCl
  absorption maximum: 334 nm

## F[B-]1(F)n2c(ccc2-c2cccs2)C(C(F)(F)F)=C2C=CC(c3cccs3)=[N+]21
In CCCCCC
  absorption maximum: 665 nm

## O=c1c2cc(F)c(N3CCOCC3)cc2oc2cc(N3CCOCC3)c(F)cc12
In CCO
  absorption maximum: 344 nm

## c1ccc(-c2nc(-c3ccccc3)nc(-n3c4ccccc4c4cc(-n5c6ccccc6c6ccccc65)ccc43)n2)cc1
In C1CCOC1
  absorption maximum: 321.23 nm

## CCCCCCOc1cc(N(CC)CC)ccc1/C=C(\C#N)c1ccc(/C=C/C(=C(C#N)C#N)c2ccc(N(c3ccccc3)c3ccccc3)cc2)s1
In ClCCl
  absorption maximum: 557 nm

## CC1=[N+]2C(=C(c3ccc(N(c4ccccc4)c4ccccc4)cc3)c3ccc(C)n3[B-]2(F)F)C=C1c1cc2n(c1)[B-](F)(F)[N+]1=CC=CC1=C2c1c(C)cc(C)cc1C
In C1CCCCC1
  absorption maximum: 593 nm
In CCOC(C)=O
  absorption maximum: 596 nm

## c1ccc(-c2cccc3ncc(-c4ccccc4)n23)cc1
In ClCCl
  absorption maximum: 337 nm

## CCCCCCCCCCCCN1C(=O)c2c(c3ccc4cc(-c5ccc(F)cc5)c(OC)cc4c3c3c2ccc2cc(-c4ccc(F)cc4)c(OC)cc23)C1=O
In ClCCl
  absorption maximum: 431 nm

## CN(C)c1cc(-c2ccc(C#Cc3ccncc3)cc2)cc2ccccc12
In CC#N
  absorption maximum: 306.26 nm
In CCO
  absorption maximum: 309.39 nm
In ClCCl
  absorption maximum: 311 nm
